# Reference: patent US8309790B2, “Animal models for demyelination disorders” (University of Chicago, priority 2005, dated 2012)
# Like-named read-outs stand apart in the source and are kept apart here.
# B1: suppressor of cytokine signaling 1 (protein, UniProt O35716 1-212, looked up)
# Suppressor of cytokine …: MVARNQVAADNAISPAAEPRRRSEPSSSSSSSSPAAPVRPRPCPAVPAPAPGDTHFRTFRSHSDYRRITRTSALLDACGFYWGPLSVHGAHERLRAEPVGTFLVRDSRQRNCFFALSVKMASGPTSIRVHFQAGRFHLDGSRETFDCLFELLEHYVAAPRRMLGAPLRQRRVRPLQELCRQRIVAAVGRENLARIPLNPVLRDYLSSFPFQI
# modifications: Flag tag
# Legend:
# [1] = test system: Hippocampal organotypic cultures; test: Hippocampal organotypic cultures (HOC), in vitro model of myelination, MBP Western blot; type: cell-based; conditions: for reduction of MBP expression elicited by IFN-γ exposure: SAL at various concentrations combined with 100 U/ml IFN-γ for 7 days
# Procedure: Our hypothesis is that the integrated stress response has the potential to protect oligodendrocytes from the harmful effects of the inflammatory response in patients with multiple sclerosis (MS). […] To test whether agents that prolong eIF2α phosphorylation might provide protection to oligodendrocytes against detrimental inflammatory factors, the effect of Salubrinol (Sal) in the presence of the immune cytokine IFN-γ was tested in an in vitro model of myelination.
# HOCs, were prepared and maintained as described previously (Kunkler and Kraig (1997) J Cereb Blood Flow Metab. 17:26-43), and were maintained in vitro for 7 days before use. SAL at various concentrations was combined with 100 U/ml IFN-γ and added to the HOC cultures for 7 days. […] After 7 days of 100 U/ml IFN-γ exposure, the levels of MBP decreased approximately 80% in the HOCs (FIG. 29).
# PP1-GADD34 phosphatase = conditions: results in sustained eIF2α phosphorylation, cited from earlier work
# [2] = test system: transgenic littermates overexpressing IFN-γ and/or SOCS1; test: IFN-γ-overexpressing mice crossed to PLP/SOCS1 mice, clinical and histological evaluation at postnatal day 21; type: in vivo; conditions: for Incidence of tremor: ten mice per group; for oligodendrocyte density: corpus callosum, postnatal day 21
# Source text: The transgenic mice MBP/IFN-γ and GFAP/tTA×TRE/IFN-γ (lines 184/110 and 184/67) that overexpress IFN-γ in the CNS have been described elsewhere (Corbin et al., 1996; Gao et al., 2000; Lin et al., 2004, 2005). Briefly, MBP/IFN-γ mice are transgenic animals in which IFN-γ expression is driven by the myelin basic protein (MBP) transcriptional control region (Gao et al., 2000). GFAP/tTA×TRE/IFN-γ are double-transgenic mice obtained by mating single-transgenic GFAP/tTA to single-transgenic TRE/IFN-γ (lines 110 and 67) mice. The two TRE/IFN-γ mouse lines, line 110 and line 67, used in the experiments produce different amounts of IFN-γ when crossed to GFA/tTA mice (184/110 and 184/67) (Lin e al., 2004, 2005). GFAP/tTA×TRE/IFN-γ is a tetracycline-off-inducible system in which the glial fibrilary acidic protein (GFAP) transcriptional control region drives the expression of tTA, which in turn, binds to the TRE (tet responsive element) and initiates the expression of IFN-γ. Administration of doxycycline suppresses tTA DNA binding and IFN-γ expression, and doxycycline removal allows for temporally-controlled induction of IFN-γ expression (Gao et al., 1999).
# IFN-γ-overexpressing mice were crossed to the PLP/SOCS1 mice in double-transgenic, (MBP/IFN-γ×PLP/SOCS1) and triple-transgenic (GFAP/tTA×TRE/IFN-γ×PLP/SOCS1) mating systems. MBP/IFN-γ×PLP/SOCS1 (172×PLP/SOCS1) mating was performed according to a standard mating protocol. The GFAP/tTA×TRE/IFN-γ×PLP/SOCS1 matings were performed in a 2-step mating process: GFAP/tTA mice were initially crossed to PLP/SOCS1 mice, and double-positive (184×PLP/SOCS1) offspring were then crossed to the TRE/IFN-γ lines 110 and 67, separately. This second mating step was performed according to the previously described “tet-off” protocol. Doxycycline 0.05 mg/ml (Sigma-Aldich) was added to the water of impregnated female mice until embryonic day 14, after which the animals were switched back to normal water, thereby allowing initiation of IFN-γ transcription, which peaks during the postnatal period (Lin et al., 2005).
# The litters of the mating systems (F1 generation) were examined daily and sacrificed at postnatal day 21. Clinical evaluation included behavioral observation and challenged ladder walking to elicit tremor. Histological examination included quantitation of the number and density of oligodendrocytes and examination of the myelination patterns. Brain tissue was simultaneously obtained from each animal at the time of sacrifice to verify and measure the expression of IFN-γ and Flag-SOCS1 (see below). The clinical and histological findings were subsequently stratified according to genotype. All animal procedures were conducted in compliance with the National Institutes of Health Guide for Care and Use of Laboratory Animals and were approved by the Institutional Animal Care and Use Committee at The University of Chicago.
# Oligodendrocyte cell density was assessed digitally using Axiovision software, at postnatal day 21, as previously described (Lin et al., 2005). The brains were sectioned sagittally through the corpus callosum dividing the brain in two symmetrical halves. Ten frozen sections from each half were prepared at 7 μm thickness, and numbered in the sequence of their preparation. The brains of three animals per study group were prepared in this fashion. Following the CC1 immunostaining the corresponding area of corpus callosum of each section was digitally selected and the corresponding total area obtained. CC1 cell counting was performed manually within the selected areas of each section, and the number of CC1 positive cells per square area (mm^2) calculated. The results were presented as mean±SD of CC1 (+) cells/mm^2 with n=3 animals per study group. […]
Molecule,reduction of MBP expression elicited by IFN-γ exposure [1],reduction of MBP expression elicited by IFN-γ exposure ([1]; listed as Sal),MBP expression ([1]; SAL treatment alone),PP1-GADD34 phosphatase activity (PP1-GADD34 phosphatase),PP1-GADD34 phosphatase activity (PP1-GADD34 phosphatase; listed as Salubrinol),Incidence of tremor ([2]; 172 × PLP/SOCS1 mating system) [%],Incidence of tremor ([2]; 184/67 × PLP/SOCS1 mating system) [%],oligodendrocyte density ([2]; 184/67 × PLP/SOCS1 system),Incidence of tremor ([2]; 184/110 × PLP/SOCS1 mating system) [%],oligodendrocyte density ([2]; 184/110 × PLP/SOCS1 system)
"O=C(/C=C/c1ccccc1)NC(NC(=S)Nc1cccc2cccnc12)C(Cl)(Cl)Cl (stereo not shown) [SAL, salubrinal]",markedly attenuated,attenuating effect,did not affect,specifically inhibits,specifically inhibit,,,,,
B1,,,,,,0,0,142±5 CC1 (+) cells/mm^2,0,141±6 CC1 (+) cells/mm^2
